Tested on: ECOs
Experiment: Response to secretin and somatostatin (organoid diameter)
Assay type: cell-based, human
Settings: ECOs exposed to secretin, compared to untreated controls
Method: Responses to secretin and somatostatin were assessed as described in Sapazoits F, et al. (Biotechnol. 2015 1-11).
We then further characterized ECOs by focusing on their function following long-term culture (20 passages). The biliary epithelium regulates the homeostasis of bile through the transport of ions, water and bile acids. The secretory capacity of ECOs was interrogated using Rhodamine-123, a fluorescent substrate for the cholangiocyte surface glycoprotein Multidrug Resistance protein-1 (MDR1) (FIGS. 10 and 11). […]. […] The response of ECOs to secretin and somatostatin was also assessed. Secretin promotes water secretion, distending the bile duct lumen, while somatostatin negates the effects of secretin.

secretin
organoid diameter: increased their diameter compared to untreated controls
